Experimental data reported in patent US7915270B2, “Oxazole ketones as modulators of fatty acid amide hydrolase” (The Scripps Research Institute, priority 2006, dated 2011).

Molecular target: T1, FAAH (Homo sapiens, UniProt O00519)
T1 sequence (O00519 1-579): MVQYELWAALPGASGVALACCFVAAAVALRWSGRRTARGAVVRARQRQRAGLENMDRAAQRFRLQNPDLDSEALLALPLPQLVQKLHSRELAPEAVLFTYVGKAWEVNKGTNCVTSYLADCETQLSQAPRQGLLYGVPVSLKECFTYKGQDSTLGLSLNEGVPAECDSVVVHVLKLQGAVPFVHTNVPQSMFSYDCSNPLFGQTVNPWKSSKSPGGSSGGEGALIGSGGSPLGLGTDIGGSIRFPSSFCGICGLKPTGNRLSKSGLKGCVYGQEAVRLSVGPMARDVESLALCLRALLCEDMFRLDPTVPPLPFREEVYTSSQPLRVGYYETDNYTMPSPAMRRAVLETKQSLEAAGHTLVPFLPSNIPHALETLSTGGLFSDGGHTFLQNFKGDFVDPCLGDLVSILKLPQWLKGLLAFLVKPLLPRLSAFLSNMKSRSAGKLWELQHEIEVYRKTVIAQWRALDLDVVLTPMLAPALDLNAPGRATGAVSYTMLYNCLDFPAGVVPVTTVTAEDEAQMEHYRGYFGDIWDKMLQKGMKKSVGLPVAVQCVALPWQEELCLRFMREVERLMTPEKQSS
Assay: Assay Method 1B: FAAH assay, 3H-anandamide hydrolysis in cell homogenate (T84 or SK-N-MC cells transfected with human FAAH)
Assay type: biochemical
Set-up: expressed in transfected cells
Details: 3H-AEA 80 nM, rt 1 h, pH 9

| IC50 [nM] | Compound |
| --- | --- |
| 0.2 | O=C(O)c1ccc(-c2cnc(C(=O)CCCCCCc3ccccc3)o2)nc1 [Example 38, 6-(2-(7-Phenylheptanoyl)oxazol-5-yl)nicotinic acid] |
| 0.4 | O=C(O)c1cccc(-c2cnc(C(=O)CCCCCCc3ccccc3)o2)n1 [Example 37, 6-(2-(7-Phenylheptanoyl)oxazol-5-yl)picolinic acid] |
